One experiment concerns the target T1, human TREM2 (Homo sapiens, UniProt Q9NZC2).
T1 construct: expressed in transfected cells; host or cells: HEK293T
The experiment can be described thus: TREM2 agonist potency by cellular phosphorylation of Syk (AlphaLisa) in HEK293T-hTREM2 cells. It counts as cell-based. The settings on record: HEK293 cells expressing human TREM2 and DAP12, Table D. A digest of the protocol: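 Agonist EC50 from a variable-slope four-parameter fit of % activation, based on AlphaLisa phospho-Syk levels in lysates. Cells: HEK293T-hTREM2 (with DAP12), treated 45 min at room temperature with compound in assay buffer.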
T1 sequence (Q9NZC2 19-230): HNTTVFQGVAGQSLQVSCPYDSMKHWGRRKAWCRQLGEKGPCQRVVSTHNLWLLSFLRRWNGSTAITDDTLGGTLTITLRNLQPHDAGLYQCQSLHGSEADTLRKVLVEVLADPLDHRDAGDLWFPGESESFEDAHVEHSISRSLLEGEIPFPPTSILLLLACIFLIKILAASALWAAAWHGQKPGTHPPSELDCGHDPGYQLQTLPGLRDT
T1 sequence (O43914 22-113 partner): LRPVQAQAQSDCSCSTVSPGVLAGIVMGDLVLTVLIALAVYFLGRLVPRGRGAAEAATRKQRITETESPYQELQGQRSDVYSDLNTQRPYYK
As to `Cc1cc([C@H]2C[C@@H](c3cc(-c4ccc(Cl)c(F)c4F)c4cc(C)c(C)nc4n3)CCO2)ccn1` [Example 186, 5-(4-chloro-2,3-difluorophenyl)-2,3-dimethyl-7-((2R,4S)-2-(2-methylpyridin-4-yl)tetrahydro-2H-pyran-4-yl)-1,8-naphthyridine], the EC50 fell in the range of 500 to 3000 nM.
The same measure, in the same setting: the figure for `Cc1nc2nc([C@H]3CCO[C@@H](c4cnn(C5CCC5)c4)C3)nc(-c3ccc(F)cc3F)c2nc1C` [Example 148, 2-((2R,4S)-2-(1-cyclobutyl-1H-pyrazol-4-yl)tetrahydro-2H-pyran-4-yl)-4-(2,4-difluorophenyl)-6,7-dimethylpteridine] is less than 50 nM; for `Cc1nc2nc([C@@H]3CCO[C@@H](c4cnn(C5CC5)c4)C3)cc(-c3ccc(Cl)cc3F)c2nc1C` [Example 223, 8-(4-chloro-2-fluorophenyl)-6-((2R,4R)-2-(1-cyclopropyl-1H-pyrazol-4-yl)tetrahydro-2H-pyran-4-yl)-2,3-dimethylpyrido[2,3-b]pyrazine] it is 50 to 500 nM.
Still for that read-out and setting: the figure for `Cc1nc2nc(N3C[C@@H](C)O[C@@H](c4cnn(C5CC5)c4)C3)nc(-c3ccnc(C(F)(F)F)c3)c2nc1C` [Example 178] is less than 50 nM.
The same measure, in the same setting: the figure for `Cc1nc2nc([C@@H]3CCO[C@H](c4cnn(C5CC5)c4)C3)nc(-c3ccc(C(F)(F)F)cc3)c2nc1C` [Example 138, 2-((2S,4R)-2-(1-cyclopropyl-1H-pyrazol-4-yl)tetrahydro-2H-pyran-4-yl)-6,7-dimethyl-4-(4-(trifluoromethyl)phenyl)pteridine] is 50 to 500 nM; for `Cc1nc2nc([C@H]3CCO[C@@H](c4cccn(C)c4=O)C3)nc(-c3ccc(F)cc3F)c2nc1C` [Example 203] it is 3000 to 100000 nM; for `Cc1nc2nc([C@@H]3C[C@@H](C)O[C@@H](c4cnn(C5CC5)c4)C3)nc(-c3cc(F)c(F)cc3F)c2nc1C` [Example 158, 2-((2R,4R,6R)-2-(1-cyclopropyl-1H-pyrazol-4-yl)-6-methyltetrahydro-2H-pyran-4-yl)-6,7-dimethyl-4-(2,4,5-trifluorophenyl)pteridine] it is 50 to 500 nM.
As to `Cc1nc2nc([C@H]3CCO[C@@H](c4cnn(C5CC5)c4)C3)nc(-c3ccc(C(F)(F)F)cc3)c2nc1C` [Example 139], the EC50 is less than 50 nM.
Consider `Cc1cnc2c(-c3ccc(F)cc3F)nc(N3C[C@@H](C)O[C@@H](c4cnn(C5CC5)c4)C3)cc2n1` [Example 209, (2S,6R)-2-(1-cyclopropyl-1H-pyrazol-4-yl)-4-(5-(2,4-difluorophenyl)-2-methylpyrido[3,4-b]pyrazin-7-yl)-6-methylmorpholine], for which the EC50 lay in the range of 50 to 500 nM.
The same measure, in the same setting: next, `Cc1nc2nc([C@@H]3CCO[C@H](c4cnn(C5CC5)n4)C3)nc(-c3ccc(F)cc3F)c2nc1C` [Example 154, 2-((2S,4R)-2-(2-cyclopropyl-2H-1,2,3-triazol-4-yl)tetrahydro-2H-pyran-4-yl)-4-(2,4-difluorophenyl)-6,7-dimethylpteridine]: 50 to 500 nM; `Cc1nc2nc(N3CCO[C@@H](c4cc[nH]c(=O)c4)C3)nc(C34CC(C(F)(F)F)(C3)C4)c2nc1C` [Example 198, (S)-4-(4-(6,7-dimethyl-4-(3-(trifluoromethyl)bicyclo[1.1.1]pentan-1-yl)pteridin-2-yl)morpholin-2-yl)pyridin-2(1H)-one]: less than 50 nM; `Cc1nc2nc([C@@H]3CCO[C@H](c4cnn(CCF)c4)C3)nc(-c3ccc(F)cc3F)c2nc1C` [Example 149, 4-(2,4-difluorophenyl)-2-((2S,4R)-2-(1-(2-fluoroethyl)-1H-pyrazol-4-yl)tetrahydro-2H-pyran-4-yl)-6,7-dimethylpteridine]: 500 to 3000 nM.
Still for that read-out and setting: next, `COc1ccc([C@H]2C[C@@H](c3nc(-c4ccc(F)cc4F)c4nc(C)c(C)nc4n3)CCO2)cn1` [Example 163, 4-(2,4-difluorophenyl)-2-((2R,4S)-2-(6-methoxypyridin-3-yl)tetrahydro-2H-pyran-4-yl)-6,7-dimethylpteridine]: 50 to 500 nM; `Cc1ccc(-c2nc(N3C[C@@H](C)O[C@@H](c4cnn(C5CC5)c4)C3)nc3nc(C)c(C)nc23)s1` [Example 244, (2S,6R)-2-(1-cyclopropyl-1H-pyrazol-4-yl)-4-(6,7-dimethyl-4-(5-methylthiophen-2-yl)pteridin-2-yl)-6-methylmorpholine]: 50 to 500 nM; `[2H]C1([2H])C[C@H](c2nc(-c3ccc(Cl)cc3F)c3nc(C)c(C)nc3n2)C[C@H](c2cnn(C3CC3)c2)O1` [Example 188, 4-(4-chloro-2-fluorophenyl)-2-((2R,4S)-2-(1-cyclopropyl-1H-pyrazol-4-yl)tetrahydro-2H-pyran-4-yl-6,6-d2)-6,7-dimethylpteridine]: less than 50 nM.
On the same count and under the same terms, next, `Cc1nc2nc(N3CCN(C)C(c4cnn(C5CC5)c4)C3)nc(-c3ccc(Cl)cc3F)c2nc1C` (stereo not drawn) [Example 205, 4-(4-chloro-2-fluorophenyl)-2-(3-(1-cyclopropyl-1H-pyrazol-4-yl)-4-methylpiperazin-1-yl)-6,7-dimethylpteridine]: less than 50 nM.

Staying with this experiment, now noted: HEK293 cells expressing human TREM2 and DAP12, Table D-2.
As to `Cc1nc2nc([C@@H]3CCO[C@H](c4cnc(C5CC5)o4)C3)nc(-c3ccc(F)cc3F)c2nc1C` [Example I-1700, 2-cyclopropyl-5-[(2S,4R)-4-[4-(2,4-difluorophenyl)-6,7-dimethyl-pteridin-2-yl]tetrahydropyran-2-yl]oxazole], the EC50 was 50 to 500 nM.
The same measure, in the same setting: next, `COc1nc2c(-c3ccc(F)cc3F)nc([C@@H]3CCO[C@H](c4cnn(C5CC5)c4)C3)nc2nc1C` (racemic) [Example I-1653, 4-(2,4-difluorophenyl)-6-methoxy-7-methyl-2-[rac-(2R,4S)-2-(1-cyclopropylpyrazol-4-yl)tetrahydropyran-4-yl]pteridine]: less than 50 nM.
Consider `Cc1nc2nc(N3C[C@@H](C)O[C@@H](c4cnn(C5CC5)c4F)C3)nc(-c3ccc(F)cc3F)c2nc1C` [Example I-1401, (2S,6R)-2-(1-cyclopropyl-5-fluoro-pyrazol-4-yl)-4-[4-(2,4-difluorophenyl)-6,7-dimethyl-pteridin-2-yl]-6-methyl-morpholine], for which the EC50 is less than 50 nM.
The compound `Cc1nc2nc(N3C[C@@H](C)O[C@@H](c4cnn(C5CC5)c4)C3)cc(C#CC3CC3)c2nc1C` [Example I-1104, (2S,6R)-4-[8-(2-cyclopropylethynyl)-2,3-dimethyl-pyrido[2,3-b]pyrazin-6-yl]-2-(1-cyclopropylpyrazol-4-yl)-6-methyl-morpholine] showed an EC50 of 500 to 3000 nM.
Same read-out and setting: the figure for `Cc1nc2nc([C@H]3CCO[C@@H](c4cnn(C5CC5)c4)C3)nc(-c3ccc(OC(F)(F)F)cc3F)c2nc1C` [Example I-1313, 2-((2R,4S)-2-(1-cyclopropyl-1H-pyrazol-4-yl)tetrahydro-2H-pyran-4-yl)-4-(2-fluoro-4-(trifluoromethoxy)phenyl)-6,7-dimethylpteridine] is 50 to 500 nM; for `Cc1nc2nc([C@H]3CCO[C@@H](c4cnn(C5CC5)c4)C3)nc(-c3ccc(C4CCC4)cc3F)c2nc1C` [Example I-1182, 4-(4-cyclobutyl-2-fluoro-phenyl)-2-[(2R,4S)-2-(1-cyclopropylpyrazol-4-yl)tetrahydropyran-4-yl]-6,7-dimethyl-pteridine] it is 500 to 3000 nM.
As to `Cc1nc2nc(N3CCOC(c4cnn5c4CCC5)C3)nc(-c3ccc(F)cc3F)c2nc1C` (stereo in doubt) [Example I-1532, (2S)-4-[4-(2,4-difluorophenyl)-6,7-dimethyl-pteridin-2-yl]-2-(5,6-dihydro-4H-pyrrolo[1,2-b]pyrazol-3-yl)morpholine], the EC50 was 50 to 500 nM.
On the same count and under the same terms, the figure for `COCn1cc([C@H]2CN(c3nc(-c4ccc(Cl)cc4F)c4nc(C)c(C)nc4n3)C[C@@H](C)O2)cn1` [Example I-1446, (2S,6R)-4-[4-(4-chloro-2-fluoro-phenyl)-6,7-dimethyl-pteridin-2-yl]-2-[1-(methoxymethyl)pyrazol-4-yl]-6-methyl-morpholine] is less than 50 nM; for `Cc1nc2cc([C@H]3CCO[C@@H](c4cnn(C5CC5)c4)C3)nc(-c3ccc(C(F)(F)F)cc3F)c2nc1C(F)(F)F` [Example I-1562] it is 50 to 500 nM.
Same read-out and setting: the figure for `Cc1nc2cc([C@H]3CCO[C@@H](c4cnn(C5CC5)c4)C3)nc(-c3ccc(F)cc3F)c2nc1CO` [Example I-1119, (7-((2R,4S)-2-(1-cyclopropyl-1H-pyrazol-4-yl)tetrahydro-2H-pyran-4-yl)-5-(2,4-difluorophenyl)-2-methylpyrido[3,4-b]pyrazin-3-yl)methanol] is 50 to 500 nM; for `Cc1nc2nc(C3CCS(=O)(=O)N(c4cnn(C5CC5)c4)C3)nc(-c3ccc(Cl)cc3F)c2nc1C` (racemic) [Example I-1733, 4-[4-(4-chloro-2-fluoro-phenyl)-6,7-dimethyl-pteridin-2-yl]-2-(1-cyclopropylpyrazol-4-yl)thiazinane 1,1-dioxide] it is 50 to 500 nM; for `Cc1nc2cc([C@H]3CCO[C@@H](c4cnn(C5CC5)c4)C3)nc(-c3ccc(F)cc3F)c2nc1COCC1COC1` [Example I-1505, 7-((2R,4S)-2-(1-cyclopropyl-1H-pyrazol-4-yl)tetrahydro-2H-pyran-4-yl)-5-(2,4-difluorophenyl)-2-methyl-3-((oxetan-3-ylmethoxy)methyl)pyrido[3,4-b]pyrazine] it is 500 to 3000 nM.
Same read-out and setting: next, `Cc1nc2cc([C@H]3CCO[C@@H](c4cnn(C5CC5)c4)C3)nc(-c3ccc(F)cc3F)c2nc1C(F)F` [Example I-1552, 7-((2R,4S)-2-(1-cyclopropyl-1H-pyrazol-4-yl)tetrahydro-2H-pyran-4-yl)-3-(difluoromethyl)-5-(2,4-difluorophenyl)-2-methylpyrido[3,4-b]pyrazine]: less than 50 nM.
`Cc1cc(-c2nc(N3C[C@@H](C)O[C@@H](c4cnn(C5CC5)c4)C3)nc3nc(C)c(C)nc23)on1` [Example I-1086, (2S,6R)-2-(1-cyclopropylpyrazol-4-yl)-4-[6,7-dimethyl-4-(3-methylisoxazol-5-yl)pteridin-2-yl]-6-methyl-morpholine] came in with an EC50 of 500 to 3000 nM.

Source of the values: patent US20240309003A1, “HETEROCYCLIC COMPOUNDS AS TRIGGERING RECEPTOR EXPRESSED ON MYELOID CELLS 2 AGONISTS AND METHODS OF USE” (Vigil Neuroscience, Inc., priority 2021, published 2024).
